Tests used:
skin MCs = test: In vivo two-photon microscopy of Pirt-GCaMP3 mice: degranulation of Av.SRho+ MCs; set-up: species or system mouse; conditions: for degranulation of Av.SRho+ MCs: mouse, in vivo
DRG neurons = assay type: cell-based, mouse
TRPV1+ nociceptors [1] = conditions: mouse, in vivo
TRPV1+ nociceptors [2] = conditions: mouse, in vivo; remark: listed apart in the source

## Staphylococcal enterotoxin B [SEB]
Skin MCs
  degranulation of Av.SRho+ MCs: presence of adjacent degranulated Av.SRho^+ MCs
DRG neurons
  intracellular calcium levels in DRG neurons: weak
TRPV1+ nociceptors [1]
  GCaMP3 fluorescence levels in skin neurons: significant increase

## C=C(C)[C@]12C[C@@H](C)[C@@]34O[C@](Cc5ccccc5)(O[C@@H]1[C@@H]3C=C(COC(=O)Cc1ccc(O)c(OC)c1)C[C@]1(O)C(=O)C(C)=C[C@@H]41)O2 [RTX, resiniferatoxin]
TRPV1+ nociceptors [2]
  expression of the stress marker K-6: decreased
  filaggrin organization: restored
  skin lesions development and tested pathological features: strong reduction

## COc1cc(CNC(=O)CCCC/C=C/C(C)C)ccc1O [capsaicin]
Skin MCs; i.d. 1 μM, video recorded for 60 minutes
  time by which increase in GCaMP3 fluorescence preceded degranulation of cognate Av.SRho+ MCs: 10 to 15 min
Skin MCs
  degranulation of Av.SRho+ MCs: most of Av.SRho^+ MCs exhibited a degranulated phenotype
TRPV1+ nociceptors [1]
  GCaMP3 fluorescence levels in skin neurons: strong increase

Source: US20220227859A1, “METHOD TO TREAT TYPE 2 INFLAMMATION OR MAST-CELL DEPENDENT DISEASE” (INSERM (INSTITUT NATIONAL DE LA SANTÉ ET DE LA RECHERCHE …, priority 2019, published 2022)
